# Test results published in patent US20100035994A1, “NOVEL HYDRATE FORM OF O-DESMETHYL VENLAFAXINE SUCCINATE” (priority 2006, published 2010).
# Legend:
# [1] = converted into form III on milling; per U.S. Pat. No. 6,673,838; cited from earlier work
# [2] = in vivo; cited from earlier work
# [3] = solubility of ODV succinate forms; type: physicochemical; conditions: novel hydrate form of the present invention
structure (smiles),measurement,setting,value
CN(C)CC(c1ccc(O)cc1)C1(O)CCCCC1.O.O=C(O)CCC(=O)O (stereo not drawn) [ODV succinate monohydrate form I],stability of polymorphic form on milling,[1],unstable
"CN(C)CC(c1ccc(O)cc1)C1(O)CCCCC1.O=C(O)CCC(=O)O (stereo not drawn) [ODV succinate, O-desmethyl venlafaxine succinate]",absorption in the gastrointestinal tract,[2],well absorbed
"CN(C)CC(c1ccc(O)cc1)C1(O)CCCCC1.O=C(O)CCC(=O)O (stereo not drawn) [novel hydrate form of ODV succinate, O-desmethyl venlafaxine succinate]",solubility,[3],55 mg/mL
